Measured values as given in PubChem BioAssay (NCI).
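Five concentrations, 48 hours, 96-well plates. Here, GI50 denotes the concentration required for 50% inhibition of growth. TGI is the concentration that stops growth completely.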 Where a SMILES comes first, the peptide text is derived from it. The star is where a group is joined. ONb = O=[N+]([O-])c1ccc(CO*)cc1; Boc = CC(C)(C)OC(=O)*

How the values were obtained:
Test in all cases: NCI tumour cell line growth inhibition, 48 h
XF 498 CNS = system: XF 498 CNS
SNB-19 CNS = system: SNB-19 CNS
CCRF-CEM leukemia = system: CCRF-CEM leukemia
IGROV1 ovarian = system: IGROV1 ovarian
DMS 114 small cell lung = system: DMS 114 small cell lung
HOP-18 NSCLC = system: HOP-18 NSCLC
HOP-92 NSCLC = system: HOP-92 NSCLC
SNB-78 CNS = system: SNB-78 CNS
M19-MEL melanoma = system: M19-MEL melanoma
HCC-2998 colon = system: HCC-2998 colon
HCT-116 colon = system: HCT-116 colon
HCT-15 colon = system: HCT-15 colon
KM20L2 colon = system: KM20L2 colon

SMILES | TGI (XF 498 CNS) [µM] | TGI (SNB-19 CNS) [µM] | TGI (CCRF-CEM leukemia) [µM] | TGI (IGROV1 ovarian) [µM] | TGI (DMS 114 small cell lung) [µM] | TGI (HOP-18 NSCLC) [µM] | TGI (HOP-92 NSCLC) [µM] | TGI (SNB-78 CNS) [µM] | TGI (M19-MEL melanoma) [µM] | TGI (HCC-2998 colon) [µM] | TGI (HCT-116 colon) [µM] | TGI (HCT-15 colon) [µM] | TGI (KM20L2 colon) [µM] | GI50 (SNB-19 CNS) [µM] | GI50 (CCRF-CEM leukemia) [µM] | GI50 (IGROV1 ovarian) [µM] | GI50 (HOP-92 NSCLC) [µM] | GI50 (HCC-2998 colon) [µM] | GI50 (HCT-116 colon) [µM] | GI50 (HCT-15 colon) [µM]
O=C(O)c1cn2c3c(cc(N4CCN(CCO)CC4)cc3c1=O)SCC2 | 67.2 | > 100 | > 100 | > 100 | > 100 | > 100 | > 100 | > 100 | > 100 | 93.3 | > 100 | > 100 | > 100 |  |  |  |  |  |  | 
Cc1c2cnccc2c(C)c2c1c1ccccc1n2CCCCCCNCc1ccccc1 | 4.37 | 3.75 | 5.13 | 3.85 | 3.94 | 0.923 | 3.64 | 5.08 | 3.95 | 4.86 | 1.92 | 3.25 | 3.33 |  |  |  |  |  |  | 
CN1C(=O)[C@@H]2[C@@H]3c4ccccc4N(S(=O)(=O)C(F)(F)F)[C@@H]3c3[nH]c4ccccc4c3[C@@H]2C1=O |  | > 100 | > 100 | 5.43 |  |  | 35.4 |  |  | > 100 | > 100 | > 100 |  |  |  |  |  |  |  | 
Brc1ccc2c([C@H]3CN[C@@H](c4c[nH]c5cc(Br)ccc45)CN3)c[nH]c2c1 |  | 21.8 | 8.64 | 8.2 |  |  | 12.2 |  |  | 3.02 | 3.03 | 11.2 |  |  |  |  |  |  |  | 
CCOC(=O)C(Cl)(NC(=O)c1c(F)c(F)c(F)c(F)c1F)C(F)(F)F (stereo unspecified) |  | > 100 | > 100 | > 100 |  |  | 75.3 |  |  | > 100 | > 100 | > 100 |  |  |  |  |  |  |  | 
CC(C)[Si](OC1=CCC[C@H]2NC(=O)[C@@H](Cc3ccccc3)[C@@]12C)(C(C)C)C(C)C |  | 22.5 | 10.2 | 26.7 |  |  | 6.67 |  |  | 4.42 | 14.1 | 15.6 |  |  |  |  |  |  |  | 
C#CC1(O)C(COP(=O)(O)OCC2OC(n3ccc(NCCCCCCCCCCCCCCCCCC)nc3=O)C(O)C2O)OC(n2ccc(N)nc2=O)C1O (stereo unspecified) |  | 40.6 | > 100 | 6.02 |  |  | 59.8 |  |  | > 34.5 | > 36 | 36.6 |  |  |  |  |  |  |  | 
CNC(=O)N(C)COC | > 100 | > 100 | > 100 | > 100 | > 100 | > 100 |  | > 100 | > 100 | > 100 | > 100 | > 100 | > 100 |  |  |  |  |  |  | 
Cc1cc(C)nc(SC(C)C(=O)N/N=C/c2ccc(OCc3ccccc3)cc2)n1 (stereo unspecified) |  | > 100 | > 100 | > 100 |  |  | > 100 |  |  | > 100 | > 100 | > 100 |  |  |  |  |  |  |  | 
CCCCN1C(=O)c2c(-c3sccc3N)sc(-c3sccc3N)c2C1=O |  | 44.2 | > 31 | > 100 |  |  | > 100 |  |  | > 100 | > 100 | > 100 |  |  |  |  |  |  |  | 
Nc1nc(Cl)cc(NCCC2(CO)CCC2)n1 |  | > 100 | > 100 | > 100 |  |  | > 100 |  |  | > 100 | > 100 | > 100 |  |  |  |  |  |  |  | 
O=C1/C(=C/c2ccc(Cl)cc2)N=C(c2ccccc2)N1CCc1cccs1 |  | > 100 | > 100 | > 100 |  |  | 38.5 |  |  | > 100 | > 100 | > 100 |  | 29.4 | 22.7 | 36.7 | 3.49 | 31.8 | 6.65 | 19.3
CC(C)CC(NC(=O)OC(C)(C)C)C(=O)NC(CCC(=O)OCc1ccc([N+](=O)[O-])cc1)C(=O)OCc1ccc([N+](=O)[O-])cc1 (stereo not drawn) (Boc-Leu-Glu(ONb)-ONb; configuration not given here) |  | > 100 | 57.5 | 47.6 |  |  | > 100 |  |  | 44.6 | > 100 | > 100 |  |  |  |  |  |  |  | 
NCCCNC1(c2cc3ccccc3s2)CCCCC1 |  | 22.5 | 13 | 24.3 |  |  | 25.5 |  |  | 2.98 | 4.91 | 17.7 |  |  |  |  |  |  |  | 
CC1C2CC(C(S(=O)(=O)N3CCOCC3)/C2=N\O)C1(C)C (stereo unspecified) |  | > 100 | > 100 | > 100 |  |  | > 100 |  |  | > 100 | > 100 | > 100 |  |  |  |  |  |  |  | 
Cc1noc2nnn(-c3ccc(Cl)cc3)c(=O)c12 |  | 26.1 | 2.48 | 19.2 |  |  | 17.9 |  |  | 9.7 | 11.3 | 10.3 |  |  |  |  |  |  |  | 
